Structures are written as SMILES.

In experiment [1] the test system is NCI-H358 cells (K-Ras G12C). Description: Potency assay: pERK in NCI-H358 cells. The note with it: Homo sapiens, NCI-H358; H358 KRAS G12C; read-out: pERK EC50. In kind it is cell-based, human. Put shortly:
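pERK decrease read by AlphaLISA SureFire p-ERK1/2 or In-Cell Western after 4 h compound exposure at 37 °C, 5% CO2.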

The target in another experiment is K-Ras G12C (Homo sapiens (Human), UniProt P01116+P62937, G12C). Nature of the experiment: Ras-Raf (BRAF RBD) disruption / FRET / MOA assay, KRAS G12C. It is filed as biochemical. The note with it: KRAS G12C; Ras-Raf disruption/FRET/MOA assay; read-out: IC50* KRAS G12C FRET data. Put shortly:
(§1)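 A 10-point, 3-fold dilution series topping at 30 μM final was incubated 3 h at 25° C with the Ras/cyclophilin A/BRAF RBD mixture.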

The target in another experiment is KRAS Q61H (Homo sapiens (Human), UniProt P01116+P62937, Q61H). Nature of the experiment: Ras-Raf (BRAF RBD) disruption / FRET / MOA assay, KRAS Q61H. The note with it: Ras-Raf disruption/FRET/MOA assay; class symbols; read-out: KRAS Q61H FRET data IC50. It is filed as biochemical. The gist of the method:
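Compounds (30 μM top final, 10-point 3-fold dilutions) incubated 3 h at 25° C with nucleotide-loaded Ras, cyclophilin A and BRAF RBD. Detection with 10 nM anti-His Eu-W1024 and 50 nM anti-GST allophycocyanin over another 1.5 h. Lowered TR-FRET ratio relative to DMSO wells gives IC50.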

The target in another experiment is NRAS G12C (Homo sapiens (Human), UniProt P01111+P62937, G12C). Nature of the experiment: Ras-Raf (BRAF RBD) disruption / FRET / MOA assay, NRAS G12C. It is filed as biochemical. Conditions: read-out: IC50* NRAS G12C FRET data. The gist of the method: as §1
Sequence of NRAS G12C (P01111 whole entry G12C): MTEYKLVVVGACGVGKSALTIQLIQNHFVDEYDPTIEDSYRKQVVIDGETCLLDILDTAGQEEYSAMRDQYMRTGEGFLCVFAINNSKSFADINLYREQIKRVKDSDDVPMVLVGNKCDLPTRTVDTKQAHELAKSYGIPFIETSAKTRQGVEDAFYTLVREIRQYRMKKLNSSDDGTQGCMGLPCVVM
Sequence of NRAS G12C (P62937 whole entry): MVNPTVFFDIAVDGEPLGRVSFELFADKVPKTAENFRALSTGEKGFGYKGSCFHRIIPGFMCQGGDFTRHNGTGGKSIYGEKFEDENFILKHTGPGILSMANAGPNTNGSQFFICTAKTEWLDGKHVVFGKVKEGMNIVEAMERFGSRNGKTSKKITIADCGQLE

Sequence of KRAS Q61H (P01116-2 other isoform, or with tags, fused parts or gaps Q61H): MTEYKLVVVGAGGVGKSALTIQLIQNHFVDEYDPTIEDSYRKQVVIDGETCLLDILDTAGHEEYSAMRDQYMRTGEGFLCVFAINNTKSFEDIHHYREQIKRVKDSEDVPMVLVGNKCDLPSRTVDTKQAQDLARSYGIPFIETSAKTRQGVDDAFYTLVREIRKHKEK
Sequence of KRAS Q61H (P62937 whole entry): as the sequence (P62937 whole entry) above
Sequence of K-Ras G12C (P01116-2 other isoform, or with tags, fused parts or gaps G12C): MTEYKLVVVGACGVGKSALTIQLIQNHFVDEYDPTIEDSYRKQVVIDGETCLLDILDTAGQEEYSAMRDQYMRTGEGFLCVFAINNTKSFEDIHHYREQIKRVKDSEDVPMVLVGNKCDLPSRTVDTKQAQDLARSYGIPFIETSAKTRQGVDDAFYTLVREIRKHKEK
Sequence of K-Ras G12C (P62937 whole entry): as the sequence (P62937 whole entry) above

For `C=CC(=O)N(C)[C@H]1CN(C(=O)N(C)[C@H](C(=O)N[C@H]2Cc3nc(cs3)-c3ccc4c(c3)c(c(-c3cccnc3[C@H](C)OC)n4CC)CC(C)(C)COC(=O)[C@@H]3CCCN(N3)C2=O)C(C)C)C[C@@H]1F` (atropisomer, axis not shown) [Example A632], in experiment [1], the EC50 (usually the midpoint of the concentration-response curve) was less than 5000 nM. In addition, the IC50 – broadly, the concentration needed to halve the response being measured – on K-Ras G12C lay within 10 to 100 nM; at KRAS Q61H it was 100 to 1000 nM; on NRAS G12C, 10 to 100 nM.

As for `C=CC(=O)N(C)[C@@H]1C[C@H](C)N(C(=O)N(C)[C@H](C(=O)N[C@H]2Cc3nc(cs3)-c3ccc4c(c3)c(c(-c3cccnc3[C@H](C)OC)n4CC)CC(C)(C)COC(=O)[C@@H]3CCCN(N3)C2=O)C(C)C)C1` (atropisomer, axis not shown) [Example A633], the EC50 in experiment [1] was less than 5000 nM. In addition, the results for the IC50 on K-Ras G12C, on KRAS Q61H and at NRAS G12C were 100 to 1000 nM, 10 to 100 nM and 10 to 100 nM, respectively.

Turning to `C=CC(=O)N(C)[C@@H]1C[C@@H](C)N(C(=O)N(C)[C@H](C(=O)N[C@H]2Cc3nc(cs3)-c3ccc4c(c3)c(c(-c3cccnc3[C@H](C)OC)n4CC)CC(C)(C)COC(=O)[C@@H]3CCCN(N3)C2=O)C(C)C)C1` (atropisomer, axis not shown) [Example A634], in experiment [1], the EC50 is less than 5000 nM. Moreover, the IC50 lay within 10 to 100 nM at K-Ras G12C, 100 to 1000 nM on KRAS Q61H and 10 to 100 nM on NRAS G12C.

Regarding `C=CC(=O)N1CCCC2(CCN(C(=O)N(C)[C@H](C(=O)N[C@H]3Cc4nc(cs4)-c4ccc5c(c4)c(c(-c4cccnc4[C@H](C)OC)n5CC)CC(C)(C)COC(=O)[C@@H]4CCCN(N4)C3=O)C(C)C)CC2)C1` (atropisomer, axis not shown) [Example A635], the EC50 in experiment [1] was less than 5000 nM. For the same compound, the IC50 at K-Ras G12C, on KRAS Q61H and at NRAS G12C was 100 to 1000 nM each time.

Consider `C=CC(=O)N1CC2(CCN2C(=O)N(C)[C@H](C(=O)N[C@H]2Cc3cccc(n3)-c3ccc4c(c3)c(c(-c3cccnc3[C@H](C)OC)n4CC)CC(C)(C)COC(=O)[C@@H]3CCCN(N3)C2=O)C(C)C)C1` (atropisomer, axis not shown) [Example A636], for which, in experiment [1], the EC50 was less than 5000 nM. Also, the figures for the IC50 on K-Ras G12C, at KRAS Q61H and on NRAS G12C were 10 to 100 nM, 100 to 1000 nM and 10 to 100 nM, respectively.

Consider `CCn1c(-c2cccnc2[C@H](C)OC)c2c3cc(ccc31)-c1csc(n1)C[C@H](NC(=O)C[C@@H](C)OC1CN(C(=O)C#CC(C)(C)N(C)C)C1)C(=O)N1CCC[C@H](N1)C(=O)OCC(C)(C)C2` (atropisomer, axis not shown) [Example A638], for which, in experiment [1], the EC50 is less than 5000 nM. For the same compound, the IC50 on K-Ras G12C is less than 10 nM; at KRAS Q61H, 1000 to 10000 nM; on NRAS G12C, less than 10 nM.

Regarding `C=CC(=O)N1CC[C@H](C(=O)N(C)[C@H](C(=O)N[C@H]2Cc3cccc(c3)-c3ccc4c(c3)c(c(-c3cccnc3[C@H](C)OC)n4CC)CC(C)(C)COC(=O)[C@@H]3CCCN(N3)C2=O)[C@@H](C)C(F)(F)F)C1` (atropisomer, axis not shown) [Example A640], the EC50 in experiment [1] was less than 5000 nM. Moreover, the IC50 on K-Ras G12C, on KRAS Q61H and at NRAS G12C was 100 to 1000 nM each time.

For `CCn1c(-c2cccnc2[C@H](C)OC)c2c3cc(ccc31)N1CCO[C@@H](C[C@H](NC(=O)[C@H](C(C)C)N(C)C(=O)C3(F)CCN(C(=O)/C=C/CN(C)C)CC3)C(=O)N3CCC[C@H](N3)C(=O)OCC(C)(C)C2)C1` (atropisomer, axis not shown) [Example A645], in experiment [1], the EC50 was less than 5000 nM. For the same compound, the IC50 at K-Ras G12C is 10 to 100 nM; at KRAS Q61H, 1000 to 10000 nM; on NRAS G12C, 10 to 100 nM.

For the compound `CC#CC(=O)N1CC2(CCN2C(=O)N(C)[C@H](C(=O)N[C@H]2Cc3nc(cs3)-c3ccc4c(c3)c(c(-c3cccnc3[C@H](C)OC)n4CC)CC(C)(C)COC(=O)[C@@H]3CCCN(N3)C2=O)C(C)C)C1` (atropisomer, axis not shown) [Example A655], the concentration for a half-maximal effect (EC50) in experiment [1] was less than 5000 nM. Also, the values for the IC50 on K-Ras G12C, at KRAS Q61H and on NRAS G12C were 100 to 1000 nM, 10 to 100 nM and 100 to 1000 nM, respectively.

Regarding `C=CC(=O)N1CC[C@]2(CCN2C(=O)N(C)[C@H](C(=O)N[C@H]2Cc3nc(cs3)-c3ccc4c(c3)c(c(-c3cccnc3[C@H](C)OC)n4CC)CC(C)(C)COC(=O)[C@@H]3CCCN(N3)C2=O)C(C)C)C1` (atropisomer, axis not shown) [Example A662], in experiment [1], the EC50 is less than 5000 nM. The IC50 at K-Ras G12C, on KRAS Q61H and at NRAS G12C was 10 to 100 nM in each case.

On to `CCn1c(-c2cccnc2[C@H](C)OC)c2c3cc(ccc31)-c1csc(n1)C[C@H](NC(=O)[C@H](C(C)C)N(C)C(=O)N1CCCOC13CN(C(=O)C#CC(C)(C)N(C)C)C3)C(=O)N1CCC[C@H](N1)C(=O)OCC(C)(C)C2` (atropisomer, axis not shown) [Example A666], for which, in experiment [1], the EC50 was less than 5000 nM. Moreover, the IC50 on K-Ras G12C, at KRAS Q61H and on NRAS G12C was 1000 to 10000 nM each time.

As to `C=CC(=O)N1CC[C@]2(COCCN2C(=O)N(C)[C@H](C(=O)N[C@H]2Cc3nc(cs3)-c3ccc4c(c3)c(c(-c3cccnc3[C@H](C)OC)n4CC)CC(C)(C)COC(=O)[C@@H]3CCCN(N3)C2=O)C(C)C)C1` (atropisomer, axis not shown) [Example A676], in experiment [1], the EC50 is less than 5000 nM. Further, the concentration for half-maximal inhibition (IC50) on K-Ras G12C was in the range of 100 to 1000 nM; at KRAS Q61H, 10 to 100 nM; at NRAS G12C, 10 to 100 nM.

As for `C=CC(=O)N1CC2(CCN(C(=O)N(C)[C@H](C(=O)N[C@H]3Cc4cccc(c4)-c4ccc5c(c4)c(c(-c4cccnc4[C@H](C)OC)n5CC)CC(C)(C)COC(=O)[C@@H]4CCCN(N4)C3=O)C(C)C)CC2)C1` (atropisomer, axis not shown) [Example A680], in experiment [1], the EC50 was less than 5000 nM. Further, the IC50 on K-Ras G12C, at KRAS Q61H and at NRAS G12C was 100 to 1000 nM throughout.

For the compound `C=CC(=O)N1CC[C@@H]2[C@H](C1)CN2C(=O)N(C)[C@H](C(=O)N[C@H]1Cc2nc(cs2)-c2ccc3c(c2)c(c(-c2cccnc2[C@H](C)OC)n3CC)CC(C)(C)COC(=O)[C@@H]2CCCN(N2)C1=O)C(C)C` (atropisomer, axis not shown) [Example A688], the EC50 in experiment [1] was less than 5000 nM. Also, the IC50 on K-Ras G12C, on KRAS Q61H and on NRAS G12C was 100 to 1000 nM throughout.

With `C=CC(=O)N1CCC2(CCCN(C(=O)N(C)[C@H](C(=O)N[C@H]3Cc4nc(cs4)-c4ccc5c(c4)c(c(-c4cccnc4[C@H](C)OC)n5CC)CC(C)(C)COC(=O)[C@@H]4CCCN(N4)C3=O)C(C)C)C2)CC1` (atropisomer, axis not shown) [Example A696], the EC50 in experiment [1] is less than 5000 nM. The IC50 at K-Ras G12C fell in the range of 100 to 1000 nM; on KRAS Q61H, 10 to 100 nM; on NRAS G12C, 100 to 1000 nM.

Consider `CCn1c(-c2cccnc2[C@H](C)OC)c2c3cc(ccc31)-c1cccc(c1)C[C@H](NC(=O)[C@@H](COC1CN(C(=O)C#CC(C)(C)O)C1)C(C)C)C(=O)N1CCC[C@H](N1)C(=O)OCC(C)(C)C2` (atropisomer, axis not shown) [Example A708], for which the EC50 in experiment [1] is less than 5000 nM. The 50% inhibitory concentration (IC50) at K-Ras G12C lay within 100 to 1000 nM; on KRAS Q61H, 1000 to 10000 nM; at NRAS G12C, 100 to 1000 nM.

As to `CCn1c(-c2cccnc2[C@H](C)OC)c2c3cc(ccc31)-c1csc(n1)C[C@H](NC(=O)[C@H](C(C)C)N(C)C(=O)N1CCN(C(=O)/C=C/CN(C)C)C[C@@H]1C)C(=O)N1CCC[C@H](N1)C(=O)OCC(C)(C)C2` (atropisomer, axis not shown) [Example A709], in experiment [1], the EC50 is less than 5000 nM. The IC50 at K-Ras G12C, at KRAS Q61H and on NRAS G12C was 10 to 100 nM in each case.

On to `CCn1c(-c2cccnc2[C@H](C)OC)c2c3cc(ccc31)-c1csc(n1)C[C@H](NC(=O)[C@H](C(C)C)N(C)C(=O)N1CC(N(C)C(=O)/C=C/CN(C)C)C1)C(=O)N1CCC[C@H](N1)C(=O)OCC(C)(C)C2` (atropisomer, axis not shown) [Example A710], for which the EC50 in experiment [1] is less than 5000 nM. For the same compound, the IC50 on K-Ras G12C, at KRAS Q61H and on NRAS G12C was 10 to 100 nM throughout.

With `C=C(OC)C(=O)N1CC(N(C)C(=O)N(C)[C@H](C(=O)N[C@H]2Cc3nc(cs3)-c3ccc4c(c3)c(c(-c3cccnc3[C@H](C)OC)n4CC)CC(C)(C)COC(=O)[C@@H]3CCCN(N3)C2=O)C(C)C)C1` (atropisomer, axis not shown) [Example A713], the EC50 in experiment [1] was less than 5000 nM. Further, the IC50 at K-Ras G12C, on KRAS Q61H and on NRAS G12C was 100 to 1000 nM each time.

Source of the values: patent US11566007B2, “Ras inhibitors” (Revolution Medicines, Inc., priority 2019, dated 2023).
